Reference: US12011444B2, “N-substituted indole derivatives as PGE2 receptor modulators” (Idorsia Pharmaceuticals Ltd, priority 2015, dated 2024)

Columns and labels:
PTRGER4 (EP4) = PTRGER4 (EP4) (Homo sapiens (Human), UniProt P35408); test: hEP4 b-arrestin assay (PathHunter HEK 293 PTGER4 b-arrestin cells); assay type: cell-based
Method in brief: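 Antagonist mode: compound is given 15 min at 37 °C, then 20 nM (final) PGE2 for 120 min, in HEK293 cells stably expressing EP4 fused to ProLink and β-arrestin 2 fused to EA. Recruitment read as β-gal luminescence after 1 h reagent at room temperature, as percent of DMSO control.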

PTGER2 (EP2) = PTGER2 (EP2) (Homo sapiens (Human), UniProt P43116); test: hEP2 b-arrestin assay (PathHunter HEK 293 PTGER2 b-arrestin cells); assay type: cell-based
Chain of PTGER2 (EP2) (P43116 whole entry): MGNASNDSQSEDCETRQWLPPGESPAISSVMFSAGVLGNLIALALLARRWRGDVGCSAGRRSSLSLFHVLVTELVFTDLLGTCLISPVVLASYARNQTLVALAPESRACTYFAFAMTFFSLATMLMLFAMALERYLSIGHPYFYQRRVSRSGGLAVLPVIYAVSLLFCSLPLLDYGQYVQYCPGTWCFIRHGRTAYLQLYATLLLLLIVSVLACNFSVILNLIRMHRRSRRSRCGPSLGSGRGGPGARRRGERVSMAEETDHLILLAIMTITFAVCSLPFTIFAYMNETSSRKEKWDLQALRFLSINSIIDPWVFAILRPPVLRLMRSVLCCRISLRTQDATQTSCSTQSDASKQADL
Method in brief: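 Readout is β-galactosidase complementation luminescence, expressed as percent of DMSO control (duplicates). PathHunter HEK293 EP2/β-arrestin 2 cells, grown 24 h, received compound for 15 min at 37 °C before a 120 min challenge with PGE2 at 5 μM final, followed by 1 h detection at room temperature.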

[1] = hEP4 b-arrestin assay (values without asterisk)
[2] = hEP2 b-arrestin assay (values without asterisk)
[3] = antagonistic activity on hEP4, mean where measured multiple times
[4] = antagonistic activity on hEP2, mean where measured multiple times

Chain of PTRGER4 (EP4) (P35408 whole entry, looked up, the tested form may be a part): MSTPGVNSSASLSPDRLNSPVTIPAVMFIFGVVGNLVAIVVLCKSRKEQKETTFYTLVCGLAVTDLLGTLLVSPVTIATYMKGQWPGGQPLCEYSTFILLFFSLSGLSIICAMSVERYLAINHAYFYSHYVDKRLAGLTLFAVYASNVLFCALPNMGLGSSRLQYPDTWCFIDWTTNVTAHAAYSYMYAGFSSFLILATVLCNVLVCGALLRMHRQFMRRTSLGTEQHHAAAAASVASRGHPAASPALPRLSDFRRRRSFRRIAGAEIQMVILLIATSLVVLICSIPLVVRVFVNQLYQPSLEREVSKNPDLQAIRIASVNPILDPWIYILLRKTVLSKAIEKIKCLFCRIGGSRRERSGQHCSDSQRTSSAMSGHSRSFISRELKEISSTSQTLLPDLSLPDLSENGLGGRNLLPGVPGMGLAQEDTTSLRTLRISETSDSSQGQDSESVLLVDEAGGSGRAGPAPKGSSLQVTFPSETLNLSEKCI

Compound | IC50 (PTRGER4 (EP4); [1]) [nM] | IC50 (PTGER2 (EP2); [2]) [nM] | IC50 (PTRGER4 (EP4); [3]) [nM] | IC50 (PTGER2 (EP2); [4]) [nM]
CCOc1cc(-c2cc(NCCn3c(C)cc4c(OC)cccc43)ncn2)ccc1-c1noc(=O)[nH]1 [Example 881, 3-(2-Ethoxy-4-{6-[2-(4-methoxy-2-methyl-indol-1-yl)-ethylamino]-pyrimidin-4-yl}-phenyl)-[1,2,4]oxadiazol-5(4H)-one] | 41 | 5 |  | 
COc1cccc2c1cc(C)n2CCNc1cc(-c2ccc3[nH]cnc3c2)ncn1 [compound 8, [6-(1H-Benzoimidazol-5-yl)-pyrimidin-4-yl]-[2-(4-methoxy-2-methyl-indol-1-yl)-ethyl]-amine] |  |  | 333 | 9
N#Cc1cc2c(Cl)cccc2n1CCNc1cc(-c2cc(Cl)c(C(=O)O)s2)ncn1 [Example 1020, 3-Chloro-5-{6-[2-(4-chloro-2-cyano-indol-1-yl)-ethylamino]-pyrimidin-4-yl}-thiophene-2-carboxylic acid] | 29 | 2 |  | 
COc1ccc(F)c2c1cc(C)n2CCNc1cc(-c2ccc(-c3nc(C)no3)cc2)ncn1 [compound 302, [2-(7-Fluoro-4-methoxy-2-methyl-indol-1-yl)-ethyl]-{6-[4-(3-methyl-[1,2,4]oxadiazol-5-yl)-phenyl]-pyrimidin-4-yl}-amine] |  |  | 145 | 33
CCc1cc(-c2cc(NCCn3c(C)cc4c(OC)cc(F)cc43)ncn2)ccc1C(=O)O [compound 283] |  |  | 132 | 17
CCc1cc(-c2cc(NCCn3c(C)cc4c(C)ccc(F)c43)ncn2)cc(F)c1C(=O)O [compound 265] |  |  | 491 | 33
Cc1ccc(F)c2c1cc(C#N)n2CCNc1cc(-c2cc(F)c(C(=O)O)s2)ncn1 [Example 851, 5-{6-[2-(2-Cyano-7-fluoro-4-methyl-indol-1-yl)-ethylamino]-pyrimidin-4-yl}-3-fluoro-thiophene-2-carboxylic acid] | 28 | 18 |  | 
COc1cc(-c2cc(NCCn3c(C)cc4c(OC)ccc(F)c43)ncn2)ccc1CC(=O)O [Example 886, (4-{6-[2-(7-Fluoro-4-methoxy-2-methyl-indol-1-yl)-ethylamino]-pyrimidin-4-yl}-2-methoxy-phenyl)-acetic acid] | 125 | 42 |  | 
CCOc1cc(-c2cc(NCCn3c(C)cc4c(Cl)c(F)cc(Cl)c43)ncn2)sc1C(=O)O [Example 883, 5-{6-[2-(4,7-Dichloro-5-fluoro-2-methyl-indol-1-yl)-ethylamino]-pyrimidin-4-yl}-3-ethoxy-thiophene-2-carboxylic acid] | 63 | 7 |  | 
CCc1cc(-c2cc(NCCn3c(C)cc4c(OC)cccc43)ncn2)sc1C(=O)O [compound 110] |  |  | 46 | 3
CCOc1cc(-c2cc(NCCn3c(C)cc4c(OC)ccc(F)c43)ncn2)ccc1NC(C)C(=O)O (racemic) [Example 839, rac-2-(2-Ethoxy-4-{6-[2-(7-fluoro-4-methoxy-2-methyl-indol-1-yl)-ethylamino]-pyrimidin-4-yl}-phenylamino)-propionic acid] | 44 | 3 |  | 
CCOc1cc(-c2cc(NCCn3c(C)cc4c(F)c(F)ccc43)ncn2)sc1C(=O)O [compound 235] |  |  | 60 | 2
Cc1ccc(F)c2c1cc(C)n2CCNc1cc(-c2ccc(N)cc2)ncn1 [compound 1, [6-(4-Amino-phenyl)-pyrimidin-4-yl]-[2-(7-fluoro-2,4-dimethyl-indol-1-yl)-ethyl]-amine] |  |  | 616 | 50
CCOc1cc(-c2cc(NCCn3c(C#N)cc4c(OC)ccc(F)c43)ncn2)sc1C(=O)OCC(=O)O [Example 1043, 5-{6-[2-(2-Cyano-7-fluoro-4-methoxy-indol-1-yl)-ethylamino]-pyrimidin-4-yl}-3-ethoxy-thiophene-2-carboxylic acid carboxymethyl ester] | 1 | 5 |  | 
CCOc1cc(-c2cc(NCCn3c(C)c(F)c4ccccc43)ncn2)sc1C(=O)O [Example 875, 3-Ethoxy-5-{6-[2-(3-fluoro-2-methyl-indol-1-yl)-ethylamino]-pyrimidin-4-yl}-thiophene-2-carboxylic acid] | 26 | 4 |  | 
COc1cccc2c1cc(C)n2CCNc1cc(-c2ccc(C(=O)O)c(C3CC3)c2)ncn1 [compound 175, 2-Cyclopropyl-4-{6-[2-(4-methoxy-2-methyl-indol-1-yl)-ethylamino]-pyrimidin-4-yl}-benzoic acid] |  |  | 529 | 6
4-{6-[2-(2-Cyano-7-fluoro-4-methoxy-indol-1-yl)-ethylamino]-pyrimidin-4-yl}-phthalic acid 2-ethyl ester [Example 965] | 43 | 53 |  | 
CCOc1cc(-c2cc(NC(C)Cn3c(C)cc4c(OC)ccc(F)c43)ncn2)sc1C(=O)O (racemic) [Example 797, rac-3-Ethoxy-5-{6-[2-(7-fluoro-4-methoxy-2-methyl-indol-1-yl)-1-methyl-ethylamino]-pyrimidin-4-yl}-thiophene-2-carboxylic acid] | 64 | 33 |  | 

Compound | IC50 (PTRGER4 (EP4); [1]) [nM] | IC50 (PTGER2 (EP2); [2]) [nM] | IC50 (PTRGER4 (EP4); [3]) [nM] | IC50 (PTGER2 (EP2); [4]) [nM]
CCOC(=O)C#Cc1ccc(-c2cc(NCCn3c(C#N)cc4c(OC)ccc(F)c43)ncn2)cc1OC [Example 1050, (4-{6-[2-(2-Cyano-7-fluoro-4-methoxy-indol-1-yl)-ethylamino]-pyrimidin-4-yl}-2-methoxy-phenyl)-propynoic acid ethyl ester] | 19 | 34 |  | 
Cc1cc2c(Cl)cccc2n1CCNc1cc(-c2ccc(C(=O)O)c(C3CC3)c2)ncn1 [compound 169] |  |  | 543 | 8
Cc1cc2cc(F)cc(F)c2n1CCNc1cc(-c2ccc(C(=O)O)c(CC(C)C)c2)ncn1 [compound 333, 4-{6-[2-(5,7-Difluoro-2-methyl-indol-1-yl)-ethylamino]-pyrimidin-4-yl}-2-isobutyl-benzoic acid] |  |  | 483 | 15
COc1cccc2c1cc(C)n2CCNc1cc(-c2ccc(-c3c[nH]cn3)cc2)ncn1 [compound 77, {6-[4-(1H-Imidazol-4-yl)-phenyl]-pyrimidin-4-yl}-[2-(4-methoxy-2-methyl-indol-1-yl)-ethyl]-amine] |  |  | 89 | 8
Cc1cccc2c1cc(C)n2CCNc1cc(-c2cc(OC(C)C)c(C(=O)O)s2)ncn1 [Example 879, 5-{6-[2-(2,4-Dimethyl-indol-1-yl)-ethylamino]-pyrimidin-4-yl}-3-isopropoxy-thiophene-2-carboxylic acid] | 36 | 4 |  | 
CCOc1cc(-c2cc(NCCn3c(C)cc4c(C)c(F)cc(Cl)c43)ncn2)ccc1C(=O)O [compound 344, 4-{6-[2-(7-Chloro-5-fluoro-2,4-dimethyl-indol-1-yl)-ethylamino]-pyrimidin-4-yl}-2-ethoxy-benzoic acid] |  |  | 319 | 34
COc1cc(F)cc2c1cc(C)n2CCNc1cc(-c2cc(F)c(C(=O)O)s2)ncn1 [compound 113] |  |  | 57 | 8
Cc1cc(F)cc2c1cc(C)n2CCNc1cc(-c2ccc3c(c2)CC(=O)N3)ncn1 [compound 61] |  |  | 518 | 98
CCOc1cc(-c2cc(NCCn3c(C#N)cc4c(OC)cc(F)c(F)c43)ncn2)ccc1OCC(=O)O [Example 944, (4-{6-[2-(2-Cyano-6,7-difluoro-4-methoxy-indol-1-yl)-ethylamino]-pyrimidin-4-yl}-2-ethoxy-phenoxy)-acetic acid] | 7 | 16 |  | 
Cc1cccc2c1cc(C)n2CCNc1cc(-c2ccc(C(=O)O)c(CC(C)C)c2)ncn1 [compound 140, 4-{6-[2-(2,4-Dimethyl-indol-1-yl)-ethylamino]-pyrimidin-4-yl}-2-isobutyl-benzoic acid] |  |  | 476 | 11
CCOc1cc(-c2cc(NCCn3c(C#N)cc4c(Cl)cc(F)c(F)c43)ncn2)ccc1NCC(=O)O [Example 916, (4-{6-[2-(4-Chloro-2-cyano-6,7-difluoro-indol-1-yl)-ethylamino]-pyrimidin-4-yl}-2-ethoxy-phenylamino)-acetic acid] | 18 | 20 |  | 
COc1cccc2c1cc(C)n2CCNc1cc(-c2ccc3[nH]c(C)nc3c2)ncn1 [compound 352] |  |  | 481 | 49
COc1cccc2c1cc(C)n2CCNc1cc(-c2ccc(-c3cc(N)no3)cc2)ncn1 [compound 180, {6-[4-(3-Amino-isoxazol-5-yl)-phenyl]-pyrimidin-4-yl}-[2-(4-methoxy-2-methyl-indol-1-yl)-ethyl]-amine] |  |  | 16 | 3
CCCc1cc(-c2cc(NCCn3c(C)cc4c(F)ccc(Cl)c43)ncn2)ccc1C(=O)O [compound 143, 4-{6-[2-(7-Chloro-4-fluoro-2-methyl-indol-1-yl)-ethylamino]-pyrimidin-4-yl}-2-propyl-benzoic acid] |  |  | 658 | 5
CCOc1cc(-c2cc(NCCn3c(C#N)cc4c(Cl)cc(F)c(F)c43)ncn2)ccc1OCC(=O)O [Example 914, (4-{6-[2-(4-Chloro-2-cyano-6,7-difluoro-indol-1-yl)-ethylamino]-pyrimidin-4-yl}-2-ethoxy-phenoxy)-acetic acid] | 68 | 32 |  | 
COc1ccc(F)c2c1cc(C)n2CCNc1cc(-c2ccc(S(N)(=O)=O)c(C)c2)ncn1 [compound 171] |  |  | 231 | 112
COc1ccc(F)c2c1cc(C#N)n2CCNc1cc(-c2cc(Cl)c(C(=O)O)c(OCC(C)C)c2)ncn1 [Example 913, 2-Chloro-4-{6-[2-(2-cyano-7-fluoro-4-methoxy-indol-1-yl)-ethylamino]-pyrimidin-4-yl}-6-isobutoxy-benzoic acid] | 5 | 13 |  | 
